BindingDB's records for doi:10.1016/j.bmc.2006.06.050 (Enscmu, 2006)
pIC50, pKi: −log10 of the molar value. Structures can show the parent of a compound that is named as a salt.

Key:
Experiment in all cases: Enzyme Inhibition Assay
[1] = target: Bacterial leucyl aminopeptidase (Vibrio proteolyticus, UniProt Q01693)
Aminopeptidase N = target: T1, Aminopeptidase N (Sus scrofa, UniProt P15145)
T1 sequence (P15145 whole entry): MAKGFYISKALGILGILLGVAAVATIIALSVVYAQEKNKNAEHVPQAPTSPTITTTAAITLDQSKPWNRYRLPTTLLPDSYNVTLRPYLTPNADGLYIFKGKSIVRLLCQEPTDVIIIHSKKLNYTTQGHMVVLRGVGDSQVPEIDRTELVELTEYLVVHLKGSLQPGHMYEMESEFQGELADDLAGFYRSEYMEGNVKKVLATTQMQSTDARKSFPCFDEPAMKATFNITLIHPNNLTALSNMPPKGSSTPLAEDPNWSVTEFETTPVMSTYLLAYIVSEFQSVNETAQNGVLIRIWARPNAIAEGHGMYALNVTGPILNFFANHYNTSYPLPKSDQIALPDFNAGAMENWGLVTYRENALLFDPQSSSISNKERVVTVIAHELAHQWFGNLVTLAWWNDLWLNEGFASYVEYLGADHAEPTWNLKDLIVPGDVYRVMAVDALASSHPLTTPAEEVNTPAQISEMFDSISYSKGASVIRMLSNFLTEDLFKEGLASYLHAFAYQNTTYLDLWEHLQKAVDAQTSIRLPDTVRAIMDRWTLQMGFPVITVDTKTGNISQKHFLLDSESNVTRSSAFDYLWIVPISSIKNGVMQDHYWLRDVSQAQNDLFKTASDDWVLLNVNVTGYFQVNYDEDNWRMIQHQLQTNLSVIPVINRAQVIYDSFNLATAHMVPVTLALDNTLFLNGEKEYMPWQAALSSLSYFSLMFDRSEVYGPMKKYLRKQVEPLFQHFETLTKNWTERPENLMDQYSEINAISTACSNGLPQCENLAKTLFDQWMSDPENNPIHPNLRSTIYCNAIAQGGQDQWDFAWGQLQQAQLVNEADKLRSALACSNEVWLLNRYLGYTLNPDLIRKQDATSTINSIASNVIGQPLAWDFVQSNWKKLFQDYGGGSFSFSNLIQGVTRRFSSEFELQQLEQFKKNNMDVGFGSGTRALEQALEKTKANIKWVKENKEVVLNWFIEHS

[2] = target: T2, Leukotriene A-4 hydrolase (Homo sapiens, UniProt P09960)
T2 sequence (P09960 whole entry): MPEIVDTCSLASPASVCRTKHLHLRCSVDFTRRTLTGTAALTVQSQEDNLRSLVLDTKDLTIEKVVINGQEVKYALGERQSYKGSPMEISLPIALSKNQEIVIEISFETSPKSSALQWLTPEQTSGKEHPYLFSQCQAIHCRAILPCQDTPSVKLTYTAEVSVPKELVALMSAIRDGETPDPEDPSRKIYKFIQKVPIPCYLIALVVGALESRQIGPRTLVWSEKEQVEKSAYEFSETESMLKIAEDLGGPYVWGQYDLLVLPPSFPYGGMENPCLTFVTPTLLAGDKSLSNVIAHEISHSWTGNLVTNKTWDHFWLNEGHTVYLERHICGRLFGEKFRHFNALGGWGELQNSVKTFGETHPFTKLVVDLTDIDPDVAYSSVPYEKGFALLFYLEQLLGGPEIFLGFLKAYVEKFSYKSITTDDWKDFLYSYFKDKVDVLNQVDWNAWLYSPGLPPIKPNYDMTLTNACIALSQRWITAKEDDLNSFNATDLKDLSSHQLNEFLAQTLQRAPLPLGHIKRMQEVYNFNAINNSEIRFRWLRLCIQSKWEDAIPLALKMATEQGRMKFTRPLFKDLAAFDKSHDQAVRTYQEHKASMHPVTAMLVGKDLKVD

Sequence of Bacterial leucyl aminopeptidase (Q01693 whole entry): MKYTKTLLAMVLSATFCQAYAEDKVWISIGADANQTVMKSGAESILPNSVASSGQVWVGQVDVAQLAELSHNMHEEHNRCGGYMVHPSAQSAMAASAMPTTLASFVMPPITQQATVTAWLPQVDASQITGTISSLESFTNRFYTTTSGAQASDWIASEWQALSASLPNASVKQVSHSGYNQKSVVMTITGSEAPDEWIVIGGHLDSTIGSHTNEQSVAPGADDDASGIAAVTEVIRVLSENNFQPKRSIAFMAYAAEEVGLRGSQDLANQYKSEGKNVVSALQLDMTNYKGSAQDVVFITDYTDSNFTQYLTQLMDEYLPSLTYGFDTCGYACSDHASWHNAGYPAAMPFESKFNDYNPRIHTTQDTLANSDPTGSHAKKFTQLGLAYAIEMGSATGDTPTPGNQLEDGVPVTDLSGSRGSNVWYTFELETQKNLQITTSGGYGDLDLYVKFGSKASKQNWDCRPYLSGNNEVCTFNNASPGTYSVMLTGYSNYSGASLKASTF

Row | Structure (SMILES) | pIC50 [1] | pIC50 (Aminopeptidase N) | pIC50 [2] | pIC50 ([1]; pH 8, 30 °C) | pKi [1] | pKi (Aminopeptidase N) | pKi [2]
1 | O=C1CCc2ccccc2C1 [1,2,3,4-tetrahydronaphthalen-2-one] | < 3.00 | < 3.00 | < 3.00 |  |  |  | 
2 | CC(=O)C1Cc2ccccc2CC1N (stereo not given) [1-(3-amino-1,2,3,4-tetrahydronaphthalen-2-yl)ethan-1-one hydrochloride] |  | < 3.00 | 3.12 | 3.30 |  |  | 
3 | NN1Cc2ccccc2CC1=O [2-amino-1,2,3,4-tetrahydroisoquinolin-3-one] | 3.13 | < 3.00 | < 3.00 |  |  |  | 
4 | O=C1Cc2ccccc2CN1O [2-hydroxy-1,2,3,4-tetrahydroisoquinolin-3-one] |  | < 3.00 | < 3.00 |  | 5.40 |  | 
5 | O=C1Cc2ccccc2CO1 [3,4-dihydro-1H-2-benzopyran-3-one] | < 3.00 | < 3.00 | < 3.00 |  |  |  | 
6 | O=C1Cc2ccccc2CS1 [3,4-dihydro-1H-2-benzothiopyran-3-one] |  | < 3.00 | < 3.00 |  | 5.40 |  | 
7 | NC1Cc2ccccc2CC1=O (stereo not given) [3-amino-1,2,3,4-tetrahydronaphthalen-2-one hydrochloride] |  |  | < 3.00 | 3.89 |  |  | 
8 | NC1Cc2ccccc2CC1P(=O)(O)O (stereo not given) [3-amino-1,2,3,4-tetrahydronaphthalene-2-phosphonic acid hydrochloride] | 3.82 | 3.30 | < 3.00 |  |  |  | 
9 | NC1Cc2ccccc2NC1=O (stereo not given) [3-amino-1,2,3,4-tetrahydroquinolin-2-one hydrochloride] |  | < 3.00 | < 3.00 |  | 4.10 |  | 
10 | NC1Cc2ccccc2CC1C(=O)NO (stereo not given) [3-amino-N-hydroxy-1,2,3,4-tetrahydronaphthalene-2-carboxamide hydrochloride] |  |  | < 3.00 |  | 5.40 | 5.40 | 
11 | NC1CCc2ccccc2C1 [(2S)-1,2,3,4-Tetrahydro-naphthalen-2-ylamine] |  | < 3.00 | < 3.00 | < 3.00 |  |  | 
12 | CO/N=C1/Cc2ccccc2CC1N (stereo not given) [(3Z)-3-(methoxyimino)-1,2,3,4-tetrahydronaphthalen-2-amine hydrochloride] |  |  | < 3.00 | 3.10 |  | 3.89 | 
13 | NC1Cc2ccccc2C/C1=N/OCCc1ccccc1 (stereo not given) [(3Z)-3-[(2-phenylethoxy)imino]-1,2,3,4-tetrahydronaphthalen-2-amine hydrochloride] |  |  | 3.30 | 3.77 |  | 3.59 | 
14 | NC1Cc2ccccc2C/C1=N/OCCCc1ccccc1 (stereo not given) [(3Z)-3-[(3-phenylpropoxy)imino]-1,2,3,4-tetrahydronaphthalen-2-amine hydrochloride] |  |  |  | 3.52 |  | 3.96 | 5.22
15 | NC1Cc2ccccc2C/C1=N/OCCCCc1ccccc1 (stereo not given) [(3Z)-3-[(4-phenylbutoxy)imino]-1,2,3,4-tetrahydronaphthalen-2-amine hydrochloride] |  |  |  | 3.96 |  | 4.26 | 5.10
16 | NC1Cc2ccccc2C/C1=N/OCc1ccccc1 (stereo not given) [(3Z)-3-[(benzyloxy)imino]-1,2,3,4-tetrahydronaphthalen-2-amine hydrochloride] |  | 3.10 | < 3.00 | 3.68 |  |  | 
17 | NC1Cc2ccccc2C/C1=N/OCCCCCc1ccccc1 (stereo not given) [(3Z)-3-{[(5-phenylpentyl)oxy]imino}-1,2,3,4-tetrahydronaphthalen-2-amine hydrochloride] |  |  |  | 3.89 |  | 4.10 | 4.52
